Data: patent US20210214303A1, “SCORPION VENOM BENZOQUINONE DERIVATIVES AND USES THEREOF” (priority 2018, published 2021)
Values after ≈ are worked out from the molar mass of the structure shown. “Also recorded” adds a separate entry of the source.

Key:
[1] = test system: Staphylococcus aureus; experiment: disk-diffusion assay; type: cell-based
Protocol: Ampicillin (5 μg) was used as a positive control.
This difference was confirmed using a broth microdilution assay (FIG. 3D). The minimum inhibitory concentration (MIC) for S. aureus growth was 4 μg/mL for the red 1,4 benzoquinone and 6 μg/mL for the blue 1,4 benzoquinone (FIG. 3D, Table 1). Ampicillin (MIC=0.5 μg/mL) was used as a positive control (ESCMID Eo (2003) Clin. Microbiol. Infect. 9: ix-xv; Pieterse et al., (2010) Brazil. J. Microbiol. 41: 133-145). These compounds were bactericidal at their MICs, killing 90% of S. aureus in 6 h and 99.9% in 24 h (Table 2).

[2] = test system: clinical isolates of methicillin-resistant S. aureus (MRSA); experiment: Minimum inhibitory concentration, Table 1, MRSA clinical isolates; type: cell-based, Staphylococcus aureus; for sensitive/resistant (growth): key: S Sensitive (did not grow the crop); R resistant (bacterial growth)
[3] = test system: E. coli; experiment: activity against gram negative E. coli; type: cell-based
[4] = test system: Candida. albicans; experiment: activity against pathogenic fungus; type: cell-based
[5] = test system: Mycobacterium tuberculosis H37Rv; experiment: microbe, parasite or virus in culture; type: cell-based; conditions: M. tuberculosis H37Rv, broth microdilution
[6] = test system: A549 (adenocarcinomic lung epithelial cells); experiment: cytotoxicity assay, LDH release; type: cell-based, human; conditions: 1, 5, and 25 μM, 12 hours
Protocol: (§1) Cytotoxicity to PBMCs and to Neoplastic Cells: The cytotoxicity of the 1,4 benzoquinones of the disclosure was tested with peripheral blood mononuclear cells (PBMCs) and various human neoplastic cell lines: A549 (adenocarcinomic lung epithelial cells), Jurkat (T cell leukemia), TE 671 (rhabdomyosarcoma cells) and SH-SY5Y (bone marrow neuroblastoma cells).
(§2) PBMCs were obtained from healthy blood donors and isolated by Ficoll-Paque PLUS density gradient centrifugation and resuspended in RPMI-1640 medium supplemented with 10% fetal calf serum. Cells were incubated at 37° C. in 5% CO2 overnight and non-adherent cells were recovered and used for subsequent experiments. The neoplastic cell lines were cultured according to the ATCC guidelines.
(§3) For cytotoxicity assays, cells were resuspended in DMEM without phenol red, supplemented with 2% heat-inactivated fetal calf serum. Cells were plated in 96-well polystyrene cell culture plates (2×10^4 to 2×10^5 cells/well depending on the cell type) and incubated at 37° C. in 5% CO2 for 8 hours to promote cell adhesion to the well's surface. The red and blue 1,4 benzoquinones were administered to achieve final concentrations of 1, 5, and 25 μM. Cells were then incubated at 37° C. in 5% CO2 for 12 hours. Following the incubation period, plates were centrifuged at 300×g for 10 minutes and supernatants were harvested to evaluate cell viability with the CytoTox 96@ Non-Radioactive Cytotoxicity Assay (Promega). This assay quantitatively measures lactate dehydrogenase (LDH), a stable cytosolic enzyme that is released upon cell lysis. The released LDH in the culture supernatants was measured with a colorimetric coupled enzymatic assay according to the manufacturer's instructions.

[7] = test system: Jurkat (T cell leukemia); experiment: cytotoxicity assay, LDH release; type: cell-based, human; conditions: 1, 5, and 25 μM, 12 hours
Protocol: as §1, §2, §3

[8] = test system: SH-SY5Y (bone marrow neuroblastoma cells); experiment: cytotoxicity assay, LDH release; type: cell-based, human; conditions: 1, 5, and 25 μM, 12 hours
Protocol: as §1, §2, §3

[9] = test system: TE 671 (rhabdomyosarcoma cells); experiment: cytotoxicity assay, LDH release; type: cell-based, human; conditions: 1, 5, and 25 μM, 12 hours
Protocol: as §1, §2, §3

[10] = test system: peripheral blood mononuclear cells (PBMCs); experiment: cytotoxicity assay, LDH release; type: cell-based, human; conditions: 25 μM, 12 hours
Protocol: FIG. 14B illustrates a cytotoxic effect of the 1,4 benzoquinones of the disclosure on peripheral blood mononuclear cells (PBMCs). PBMCs were incubated with the red and blue 1,4 benzoquinones at a concentration of 25 μM for 12 hours, and cell death was evaluated by the release of the stable cytosolic enzyme lactate dehydrogenase. […] Each result is reported as the mean±SD.
as §1, §2, §3

[11] = test system: fresh human erythrocytes; experiment: Hemolysis assay; type: cell-based; conditions: 2 hours, all concentrations tested (even higher than 100 μg/mL)
Protocol: FIG. 14A illustrates a cytotoxic activity assay of the red and blue 1,4 benzoquinones. Hemolysis was evaluated using fresh human erythrocytes. Lysis was evaluated by the absorbance of the supernatant at 415 nm after 2 hours of incubation with different concentrations of the 1,4 benzoquinones. Triton X-100 was used as positive control.
Hemolysis assay: The hemolytic activity was evaluated for both of the 1,4 benzoquinones using fresh human erythrocytes. Fresh human erythrocytes were washed four times with phosphate buffered saline (PBS) and incubated for 2 h at 37° C. with different concentration of the 1,4 benzoquinones. A gradient of Triton X-100 was used as positive control of hemolysis. After incubation, the erythrocytes suspension was centrifuged at 400×g for 10 min and supernatant was recovered. Hemolysis was determined by the absorbance of the supernatant at 415 nm.

[12] = test system: Jurkat cells; experiment: Annexin V / viability dye flow cytometry apoptosis assay; type: cell-based; conditions: 25 μM; 0, 4, 8 and 12 h
Protocol: In this assay, Jurkat cells were incubated with either the red or blue 1,4 benzoquinone at a concentration of 25 μM for 0, 4, 8 and 12 h. Cells were then stained with the Fixable Viability Dye eFluor 780 and FITC Annexin V and analyzed using flow cytometry. Positive staining with Annexin V is a marker of early apoptosis, and positive staining with both Annexin V and the viability dye is a marker of late apoptosis/necrosis. Double negatives are live cells. Cells were grouped into three categories (live, early apoptotic, and late apoptotic/necrotic). Data from three independent experiments are shown as mean±SEM (standard error of mean).

COC1=CC(=O)C(SC)=C(SC)C1=O [blue 1,4 benzoquinone, 5-methoxy-2,3-bis(methylthio)cyclohexa-2,5-diene-1,4-dione]
inhibition of S. aureus growth [1]: clear inhibition; also recorded: inhibitory activity
MIC ([2]; Staphylococcus aureus, MRSA): > 64 µg/mL
MIC ([2]; strain 01 2075): >64 µg/mL
sensitive/resistant (growth) ([2]; strain 01 2075, 0.5 μg/ml): R
sensitive/resistant (growth) ([2]; strain 01 2075, 1 μg/ml): R
sensitive/resistant (growth) ([2]; strain 01 2075, 2 μg/ml): R
sensitive/resistant (growth) ([2]; strain 01 2075, 4 μg/ml): R
sensitive/resistant (growth) ([2]; strain 01 2075, 8 μg/ml): R
sensitive/resistant (growth) ([2]; strain 01 2075, 16 μg/ml): R
sensitive/resistant (growth) ([2]; strain 01 2075, 32 μg/ml): R
sensitive/resistant (growth) ([2]; strain 01 2075, 64 μg/ml): R
MIC ([2]; strain 01 2104): >64 µg/mL
sensitive/resistant (growth) ([2]; strain 01 2104, 0.5 μg/ml): R
sensitive/resistant (growth) ([2]; strain 01 2104, 1 μg/ml): R
sensitive/resistant (growth) ([2]; strain 01 2104, 2 μg/ml): R
sensitive/resistant (growth) ([2]; strain 01 2104, 4 μg/ml): R
sensitive/resistant (growth) ([2]; strain 01 2104, 8 μg/ml): R
sensitive/resistant (growth) ([2]; strain 01 2104, 16 μg/ml): R
sensitive/resistant (growth) ([2]; strain 01 2104, 32 μg/ml): R
sensitive/resistant (growth) ([2]; strain 01 2104, 64 μg/ml): R
sensitive/resistant (growth) ([2]; strain 09 3001, 0.5 μg/ml): R
sensitive/resistant (growth) ([2]; strain 09 3001, 1 μg/ml): R
sensitive/resistant (growth) ([2]; strain 09 3001, 2 μg/ml): R
sensitive/resistant (growth) ([2]; strain 09 3001, 4 μg/ml): R
sensitive/resistant (growth) ([2]; strain 09 3001, 8 μg/ml): R
sensitive/resistant (growth) ([2]; strain 09 3001, 16 μg/ml): R
sensitive/resistant (growth) ([2]; strain 09 3001, 32 μg/ml): R
sensitive/resistant (growth) ([2]; strain 09 3001, 64 μg/ml): R
MIC ([2]; strain 21 2001): >64 µg/mL
sensitive/resistant (growth) ([2]; strain 21 2001, 0.5 μg/ml): R
sensitive/resistant (growth) ([2]; strain 21 2001, 1 μg/ml): R
sensitive/resistant (growth) ([2]; strain 21 2001, 2 μg/ml): R
sensitive/resistant (growth) ([2]; strain 21 2001, 4 μg/ml): R
sensitive/resistant (growth) ([2]; strain 21 2001, 8 μg/ml): R
sensitive/resistant (growth) ([2]; strain 21 2001, 16 μg/ml): R
sensitive/resistant (growth) ([2]; strain 21 2001, 32 μg/ml): R
sensitive/resistant (growth) ([2]; strain 21 2001, 64 μg/ml): R
activity against gram negative E. coli [3]: neither compound was found to have appreciable activity; also recorded: Neither 1,4 benzoquinone showed activity
activity against the pathogenic fungus Candida. albicans [4]: Neither 1,4 benzoquinone showed activity
MIC [5]: 4 µg/mL (≈ 17.4 µM)
cytotoxic effect on A549 cells (LDH release) [6]: remained relatively unaffected
cytotoxic effect on Jurkat cells (LDH release) [7]: comparably potent in inducing death
cytotoxic effect on SH-SY5Y cells (LDH release) [8]: comparably potent in inducing death
cytotoxic effect on TE 671 cells (LDH release) [9]: comparably potent in inducing death
PBMCs killed [10]: 50%
cytotoxic effect on PBMCs (LDH release) [10]: cytotoxic against PBMCs
hemolytic activity [11]: no erythrocyte hemolysis was observed; also recorded: Neither 1,4 benzoquinone showed hemolytic activity
apoptosis (Annexin V staining, loss of cell membrane asymmetry) [12]: triggers apoptosis
